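Following 48 hours of exposure in 96-well plates, responses at five concentrations were used to interpolate endpoints linearly. At the GI50, growth is halved. TGI: concentration producing complete growth inhibition.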
How the values were obtained:
Assay in all cases: inhibition of tumour cell growth, NCI panel, 48 h
786-0 renal = tested on: 786-0 renal
A498 renal = tested on: A498 renal
A549 NSCLC = tested on: A549 NSCLC
ACHN renal = tested on: ACHN renal
BT-549 breast = tested on: BT-549 breast
CAKI-1 renal = tested on: CAKI-1 renal
CCRF-CEM leukemia = tested on: CCRF-CEM leukemia
COLO 205 colon = tested on: COLO 205 colon
DU-145 prostate = tested on: DU-145 prostate
EKVX NSCLC = tested on: EKVX NSCLC
HCC-2998 colon = tested on: HCC-2998 colon
HCT-116 colon = tested on: HCT-116 colon
HCT-15 colon = tested on: HCT-15 colon
HL-60(TB) leukemia = tested on: HL-60(TB) leukemia
HOP-62 NSCLC = tested on: HOP-62 NSCLC
HOP-92 NSCLC = tested on: HOP-92 NSCLC
HS 578T breast = tested on: HS 578T breast
HT29 colon = tested on: HT29 colon
IGROV1 ovarian = tested on: IGROV1 ovarian
K-562 leukemia = tested on: K-562 leukemia
KM12 colon = tested on: KM12 colon
LOX IMVI melanoma = tested on: LOX IMVI melanoma
M14 melanoma = tested on: M14 melanoma
MALME-3M melanoma = tested on: MALME-3M melanoma
MCF7 breast = tested on: MCF7 breast
MDA-MB-231 breast = tested on: MDA-MB-231 breast
MDA-MB-435 = tested on: MDA-MB-435
MOLT-4 leukemia = tested on: MOLT-4 leukemia
NCI-H226 lung = tested on: NCI-H226 lung
NCI-H23 lung = tested on: NCI-H23 lung
NCI-H460 lung = tested on: NCI-H460 lung
NCI-H522 lung = tested on: NCI-H522 lung
NCI/ADR-RES ovarian = tested on: NCI/ADR-RES ovarian
OVCAR-3 ovarian = tested on: OVCAR-3 ovarian
OVCAR-4 ovarian = tested on: OVCAR-4 ovarian
OVCAR-5 ovarian = tested on: OVCAR-5 ovarian
OVCAR-8 ovarian = tested on: OVCAR-8 ovarian
PC-3 prostate = tested on: PC-3 prostate
RPMI-8226 leukemia = tested on: RPMI-8226 leukemia
RXF 393 renal = tested on: RXF 393 renal
SF-268 CNS = tested on: SF-268 CNS
SF-295 CNS = tested on: SF-295 CNS
SF-539 CNS = tested on: SF-539 CNS
SK-MEL-2 melanoma = tested on: SK-MEL-2 melanoma
SK-MEL-28 melanoma = tested on: SK-MEL-28 melanoma
SK-MEL-5 melanoma = tested on: SK-MEL-5 melanoma
SK-OV-3 ovarian = tested on: SK-OV-3 ovarian
SN12C renal = tested on: SN12C renal
SNB-19 CNS = tested on: SNB-19 CNS
SNB-75 CNS = tested on: SNB-75 CNS
SR leukemia = tested on: SR leukemia
SW-620 colon = tested on: SW-620 colon
T-47D breast = tested on: T-47D breast
TK-10 renal = tested on: TK-10 renal
U251 CNS = tested on: U251 CNS
UACC-257 melanoma = tested on: UACC-257 melanoma
UACC-62 melanoma = tested on: UACC-62 melanoma
UO-31 renal = tested on: UO-31 renal

COc1cc(/C=C2\C(=O)N(Cc3ccc(Cl)cc3)c3ccccc32)cc(OC)c1OC
GI50 (786-0 renal): 3.37 µM
TGI (786-0 renal): 14.9 µM
GI50 (A498 renal): 1.54 µM
TGI (A498 renal): 7.97 µM
GI50 (A549 NSCLC): 4.27 µM
TGI (A549 NSCLC): 19.2 µM
GI50 (ACHN renal): 2.9 µM
TGI (ACHN renal): 8.37 µM
GI50 (BT-549 breast): 2.51 µM
TGI (BT-549 breast): 11.6 µM
GI50 (CAKI-1 renal): 2.92 µM
TGI (CAKI-1 renal): 13.8 µM
GI50 (CCRF-CEM leukemia): 1.41 µM
TGI (CCRF-CEM leukemia): 4.82 µM
GI50 (COLO 205 colon): 3.15 µM
TGI (COLO 205 colon): 8.52 µM
GI50 (DU-145 prostate): 2.05 µM
TGI (DU-145 prostate): 5.04 µM
GI50 (EKVX NSCLC): 4.15 µM
TGI (EKVX NSCLC): 34.6 µM
GI50 (HCC-2998 colon): 1.95 µM
TGI (HCC-2998 colon): 4.28 µM
GI50 (HCT-116 colon): 1.68 µM
TGI (HCT-116 colon): 3.19 µM
GI50 (HCT-15 colon): 1.68 µM
TGI (HCT-15 colon): 3.43 µM
GI50 (HL-60(TB) leukemia): 1.94 µM
TGI (HL-60(TB) leukemia): 5.44 µM
GI50 (HOP-62 NSCLC): 3.72 µM
TGI (HOP-62 NSCLC): 12.5 µM
GI50 (HOP-92 NSCLC): 1.64 µM
TGI (HOP-92 NSCLC): 5.74 µM
GI50 (HS 578T breast): 1.65 µM
TGI (HS 578T breast): 11.1 µM
GI50 (HT29 colon): 3.27 µM
TGI (HT29 colon): > 30.5 µM
GI50 (IGROV1 ovarian): 2.73 µM
TGI (IGROV1 ovarian): 10.3 µM
GI50 (K-562 leukemia): 2.78 µM
TGI (K-562 leukemia): 16.4 µM
GI50 (KM12 colon): 2.19 µM
TGI (KM12 colon): 5.7 µM
GI50 (LOX IMVI melanoma): 1.59 µM
TGI (LOX IMVI melanoma): 3 µM
GI50 (M14 melanoma): 2.45 µM
TGI (M14 melanoma): 7.01 µM
GI50 (MALME-3M melanoma): 3.73 µM
TGI (MALME-3M melanoma): 16.3 µM
GI50 (MCF7 breast): 2.97 µM
TGI (MCF7 breast): > 61.7 µM
GI50 (MDA-MB-231 breast): 2.48 µM
TGI (MDA-MB-231 breast): 18.4 µM
GI50 (MDA-MB-435): 2.32 µM
TGI (MDA-MB-435): 7.03 µM
GI50 (MOLT-4 leukemia): 2.2 µM
TGI (MOLT-4 leukemia): 5.97 µM
GI50 (NCI-H226 lung): 5.2 µM
TGI (NCI-H226 lung): 19.9 µM
GI50 (NCI-H23 lung): 2.92 µM
TGI (NCI-H23 lung): 13.5 µM
GI50 (NCI-H460 lung): 2.82 µM
TGI (NCI-H460 lung): 8.38 µM
GI50 (NCI-H522 lung): 2.2 µM
TGI (NCI-H522 lung): 5.93 µM
GI50 (NCI/ADR-RES ovarian): 2.85 µM
TGI (NCI/ADR-RES ovarian): 9.96 µM
GI50 (OVCAR-3 ovarian): 1.57 µM
TGI (OVCAR-3 ovarian): 3.31 µM
GI50 (OVCAR-4 ovarian): 4.35 µM
TGI (OVCAR-4 ovarian): > 49.6 µM
GI50 (OVCAR-5 ovarian): 3.38 µM
TGI (OVCAR-5 ovarian): 14.5 µM
GI50 (OVCAR-8 ovarian): 3.4 µM
TGI (OVCAR-8 ovarian): > 45.2 µM
GI50 (PC-3 prostate): 2.43 µM
TGI (PC-3 prostate): 17.2 µM
GI50 (RPMI-8226 leukemia): 0.645 µM
TGI (RPMI-8226 leukemia): 2.39 µM
GI50 (RXF 393 renal): 2.35 µM
TGI (RXF 393 renal): 4.95 µM
GI50 (SF-268 CNS): 2.76 µM
TGI (SF-268 CNS): 13.7 µM
GI50 (SF-295 CNS): 4.41 µM
TGI (SF-295 CNS): 32.3 µM
GI50 (SF-539 CNS): 4.95 µM
TGI (SF-539 CNS): 11.1 µM
GI50 (SK-MEL-2 melanoma): 4.86 µM
TGI (SK-MEL-2 melanoma): 18 µM
GI50 (SK-MEL-28 melanoma): 1.53 µM
TGI (SK-MEL-28 melanoma): 3.07 µM
GI50 (SK-MEL-5 melanoma): 3.98 µM
TGI (SK-MEL-5 melanoma): 11.9 µM
GI50 (SK-OV-3 ovarian): 6.82 µM
TGI (SK-OV-3 ovarian): > 89.4 µM
GI50 (SN12C renal): 2.59 µM
TGI (SN12C renal): 8.99 µM
GI50 (SNB-19 CNS): 4.78 µM
TGI (SNB-19 CNS): 18 µM
GI50 (SNB-75 CNS): 5.31 µM
TGI (SNB-75 CNS): > 100 µM
GI50 (SR leukemia): 1.51 µM
TGI (SR leukemia): 4.19 µM
GI50 (SW-620 colon): 1.78 µM
TGI (SW-620 colon): 3.53 µM
GI50 (T-47D breast): 2.16 µM
TGI (T-47D breast): 7.72 µM
GI50 (TK-10 renal): 3.09 µM
TGI (TK-10 renal): 30.1 µM
GI50 (U251 CNS): 1.75 µM
TGI (U251 CNS): 3.44 µM
GI50 (UACC-257 melanoma): 6.04 µM
TGI (UACC-257 melanoma): 26.6 µM
GI50 (UACC-62 melanoma): 2.21 µM
TGI (UACC-62 melanoma): 10 µM
GI50 (UO-31 renal): 2.06 µM
TGI (UO-31 renal): 6.8 µM

Source: PubChem BioAssay (NCI)
